We go through 13 compounds from patent publication US7829665B2 (priority 2005, dated 2010).

pEC50, pIC50: −log10 of the molar value. Where two headings read alike, the source gives them in different places.

In experiment [1] the test system is HCV sub-genomic replicon in GS4.3 cells (HuH-7 hepatoma cells). The experiment can be described thus: Quantitation by ELISA of Neomycin phosphotransferase II (NPTII) in the HCV sub-genomic replicon, GS4.3. The format is cell-based, hepatitis C virus. The following applies: Hepatitis C virus. On the procedure: The HCV sub-genomic replicon (1377/NS3-3′, accession No. AJ242652), stably maintained in HuH-7 hepatoma cells, was created by Lohmann et al. Science 285: 110-113 (1999). The replicon-containing cell culture, designated GS4.3, was obtained from Dr. Christoph Seeger of the Institute for Cancer Research, Fox Chase Cancer Center, Philadelphia, Pa.
GS4.3 cells were maintained at 37° C., 5% CO2, in DMEM (Gibco 11965-092) supplemented with L-glutamine 200 mM (100×) (Gibco25030-081), non-essential amino acids (NEAA) (Biowhittaker 13-114E), heat-inactivated (HI) Fetal Bovine Serum (FBS) (Hyclone SH3007.03) and 750 μg/ml geneticin (G418) (Gibco 10131-035). Cells were sub-divided 1:3 or 4 every 2-3 days.
24 h prior to the assay, GS4.3 cells were collected, counted, and plated in 96-well plates (Costar 3585) at 7500 cells/well in 100 μl standard maintenance medium (above) and incubated in the conditions above. To initiate the assay, culture medium was removed, cells were washed once with PBS (Gibco 10010-023) and 90 μl Assay Medium (DMEM, L-glutamine, NEAA, 10% HI FBS, no G418) was added. Inhibitors were made as a 10× stock in Assay Medium, (3-fold dilutions from 10 μM to 56 pM final concentration, final DMSO concentration 1%), 10 μl were added to duplicate wells, plates were rocked to mix, and incubated as above for 72 h.
An NPTII Elisa kit was obtained from AGDIA, Inc. (Compound direct ELISA test system for Neomycin Phosphotransferase II, PSP 73000/4800). Manufacturer's instructions were followed, with some modifications. 10×PEB-1 lysis buffer was made up to include 500 μM PMSF (Sigma P7626, 50 mM stock in isopropanol). After 72 h incubation, cells were washed once with PBS and 150 μl PEB-1 with PMSF was added per well. Plates were agitated vigorously for 15 minutes, room temperature, then frozen at −70° C. Plates were thawed, lysates were mixed thoroughly, and 100 μl were applied to an NPTII Elisa plate. A standard curve was made. Lysate from DMSO-treated control cells was pooled, serially diluted with PEB-1 with PMSF, and applied to duplicate wells of the ELISA plate, in a range of initial lysate amount of 150 ul-2.5 ul. In addition, 100 μl buffer alone was applied in duplicate as a blank. Plates were sealed and gently agitated at room temperature for 2 h. Following capture incubation, the plates were washed 5×300 μl with PBS-T (0.5% Tween-20, PBS-T was supplied in the ELISA kit). For detection, a 1× dilution of enzyme conjugate diluent MRS-2 (5×) was made in PBS-T, into which 1:100 dilutions of enzyme conjugates A and B were added, as per instructions. Plates were resealed, and incubated with agitation, covered, room temperature, for 2 h. The washing was then repeated and 100 μl of room temperature TMB substrate was added. After approximately 30 minutes incubation (room temperature, agitation, covered), the reaction was stopped with 50 μl 3M sulfuric acid. Plates were read at 450 nm on a Molecular Devices Versamax plate reader.
Inhibitor effect was expressed as a percentage of DMSO-treated control signal, and inhibition curves were calculated using a 4-parameter equation: y=A+((B−A)/(1+((C/x)^D))), where C is half-maximal activity or EC50.

Experiment [2] deals with T1, full-length NS3/NS4A-2 (HCV NS3 protease) (Hepatitis C virus genotype 1a, UniProt P27958).
T1 construct: Recombinant E. coli or Baculovirus full-length NS3 was diluted to 3.33 μM with assay buffer; made in house; host or cells: E. coli or baculovirus (BV) expression system
In words: NS3-NS4 protease assay / NS3 inhibition assay (RETS1 substrate, fluorescence kinetic read). The following applies: read-out: NS3-NS4 IC50. The class given is biochemical. In outline: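 Full-length NS3 from E. coli (2 nM in assay) or baculovirus (3 nM) was precomplexed with excess NS4A-2 peptide, then preincubated 10 min at room temperature with serially diluted compounds starting at 50 microM. Reaction was started with RETS1 substrate at 8 μM before addition and read kinetically for 30 min (ex 335/em 495 nm). Four-parameter IC50s were converted to Ki by Cheng-Prusoff using Km 2.03 μM (E. coli) or 1.74 μM (BV).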

[3] abbreviates: Huh-7, GS4.3 cells, 72 h incubation, NPTII ELISA, read-out: Replicon EC50.
The mark [4] stands for this setting: recombinant E. coli or Baculovirus full-length NS3 with NS4A-2.

T1 sequence (P27958 1027-1657): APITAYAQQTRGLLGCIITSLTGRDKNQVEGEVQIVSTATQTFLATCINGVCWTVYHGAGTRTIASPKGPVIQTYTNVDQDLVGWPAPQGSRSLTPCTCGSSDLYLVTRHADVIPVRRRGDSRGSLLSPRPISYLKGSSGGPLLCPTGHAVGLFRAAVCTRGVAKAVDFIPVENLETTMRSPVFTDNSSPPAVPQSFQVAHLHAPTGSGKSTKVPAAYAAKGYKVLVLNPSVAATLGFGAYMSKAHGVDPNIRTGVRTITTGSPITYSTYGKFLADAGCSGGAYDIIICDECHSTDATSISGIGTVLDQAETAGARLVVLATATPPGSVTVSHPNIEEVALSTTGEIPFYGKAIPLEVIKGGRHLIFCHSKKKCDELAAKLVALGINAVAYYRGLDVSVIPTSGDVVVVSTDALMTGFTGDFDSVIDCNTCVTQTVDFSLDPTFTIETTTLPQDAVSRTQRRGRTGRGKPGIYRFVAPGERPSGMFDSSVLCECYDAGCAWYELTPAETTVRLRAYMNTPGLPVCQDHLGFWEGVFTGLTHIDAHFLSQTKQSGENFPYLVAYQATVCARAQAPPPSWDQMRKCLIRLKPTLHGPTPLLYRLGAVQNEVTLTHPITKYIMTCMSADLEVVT

For `CC(C)(C)OC(=O)NC1CCCCC/C=C\[C@H]2C[C@@]2(C(=O)NS(=O)(=O)NCC(F)(F)F)NC(=O)C2CC(OC(=O)N3Cc4cccc(Cl)c4C3)CN2C1=O` (single isomer, unassigned) [Compound 226], the pEC50 in experiment [1] (setting [3]) is greater than 7.00.
In the case of `O=C(N[C@H]1CCCCC/C=C\[C@@H]2C[C@@]2(C(=O)NS(=O)(=O)C2CC2)NC(=O)[C@@H]2C[C@@H](OC(=O)N3Cc4cccc(F)c4C3)CN2C1=O)C(O)C(F)(F)F` (single isomer, unassigned) [Compound 247], the negative-log EC50 (pEC50) in experiment [1] (setting [3]) is greater than 7.00.
In the case of `CC(C)(C)OC(=O)N[C@H]1CCCCC/C=C\[C@@H]2C[C@@]2(C(=O)NS(=O)(=O)C2(C)CC2)NC(=O)[C@@H]2C[C@@H](OC(=O)N3Cc4ccccc4C3)CN2C1=O` [Compound 100, (1S,4R,6S,14S,18R)-1,3-Dihydro-isoindole-2-carboxylic acid 14-tert-butoxycarbonylamino-4-(1-methylcyclopropane-1-sulfonyl)aminocarbonyl-2,15-dioxo-3,16-diaza-tricyclo[14.3.0.0^4,6]nonadec-7-en-18-yl ester], in experiment [1] (Huh-7, 72 h, read-out: Replicon EC50), the pEC50 is greater than 7.00.
For `CC(C)(C)OC(=O)N[C@H]1CCCCC/C=C\[C@@H]2C[C@@]2(C(=O)NS(=O)(=O)C2(Cc3ccccc3)CC2)NC(=O)[C@@H]2C[C@@H](OC(=O)N3Cc4ccccc4C3)CN2C1=O` [Compound 101], the pIC50 in experiment [2] (setting [4]) was greater than 7.00. Besides, the negative-log EC50 (pEC50) in experiment [1] (setting [3]) was greater than 7.00.
Turning to `CC(C)(C)OC(=O)N[C@H]1CCCCC/C=C\[C@@H]2C[C@@]2(C(=O)NS(=O)(=O)C(C)(C)C)NC(=O)[C@@H]2C[C@@H](OC(=O)N3Cc4ccccc4C3)CN2C1=O` [Compound 102], the pIC50 in experiment [2] (setting [4]) is greater than 7.00. Further, the pEC50 in experiment [1] (setting [3]) is greater than 6.00.
`COCC1(S(=O)(=O)NC(=O)[C@@]23C[C@H]2/C=C\CCCCC[C@H](NC(=O)OC(C)(C)C)C(=O)N2C[C@H](OC(=O)N4Cc5ccccc5C4)C[C@H]2C(=O)N3)CC1` [Compound 103]: the pIC50 in experiment [2] (setting [4]) was greater than 7.00. In addition, the pEC50 in experiment [1] (setting [3]) was greater than 7.00.
In the case of `CCCC1(S(=O)(=O)NC(=O)[C@@]23C[C@H]2/C=C\CCCCC[C@H](NC(=O)OC(C)(C)C)C(=O)N2C[C@H](OC(=O)N4Cc5ccccc5C4)C[C@H]2C(=O)N3)CC1` [Compound 104], the pIC50 in experiment [2] (setting [4]) is greater than 7.00. In experiment [1] (setting [3]), the negative logarithm of the EC50 (pEC50) is greater than 7.00.
For the compound `C=CCC1(S(=O)(=O)NC(=O)[C@@]23C[C@H]2/C=C\CCCCC[C@H](NC(=O)OC(C)(C)C)C(=O)N2C[C@H](OC(=O)N4Cc5ccccc5C4)C[C@H]2C(=O)N3)CC1` [Compound 105], the pIC50 in experiment [2] (setting [4]) was greater than 7.00. In experiment [1] (setting [3]), the negative logarithm of the EC50 (pEC50) is greater than 7.00.
For the compound `C[C@@H](NC(=O)O[C@@H]1C[C@H]2C(=O)N[C@]3(C(=O)NS(=O)(=O)C4CC4)C[C@H]3/C=C\CCCCC[C@H](NC(=O)OC(C)(C)C)C(=O)N2C1)c1ccc(F)cn1` [Compound 150], the pEC50 in experiment [1] (setting [3]) is less than 5.00.
With `O=C(CCC(F)(F)F)N[C@H]1CCCCC/C=C\[C@@H]2C[C@@]2(C(=O)NS(=O)(=O)C2CC2)NC(=O)[C@@H]2CCCN2C1=O` [Compound 2139], in experiment [1] (Huh-7, Table 26, read-out: EC50), the negative-log EC50 (pEC50) was greater than 6.00.
As for `C[C@H](NC(=O)[C@@]12C[C@H]1/C=C\CCCCC[C@H](NC(=O)OC(C)(C)C)C(=O)N1C[C@H](OC(=O)N3Cc4ccccc4C3)C[C@H]1C(=O)N2)c1ccccc1` [Compound 2502], the pIC50 in experiment [2] (Table 24) is less than 5.00.
As to `CC(C)(C)OC(=O)N[C@H]1CCCCC/C=C\[C@@H]2C[C@@]2(C(=O)N[S@@+]([O-])C(C)(C)C)NC(=O)[C@@H]2C[C@@H](OC(=O)N3Cc4ccccc4C3)CN2C1=O` [Compound 2601, (1S,4R,6S,14S,18R)-1,3-Dihydro-isoindole-2-carbonyloxylic acid 14-tert-butoxycarbonylamino-4-((S)-2-methylpropane-2-sulfinyl)aminocarbonyl-2,15-dioxo-3,16-diaza-tricyclo[14.3.0.0^4,6]nonadec-7-ene-18-yl ester], the pIC50 in experiment [2] (Table 25) is less than 5.00.
On the same count and under the same terms, for `CC(C)(C)OC(=O)N[C@H]1CCCCC/C=C\[C@@H]2C[C@@]2(C(=O)N[S@+]([O-])C(C)(C)C)NC(=O)[C@@H]2C[C@@H](OC(=O)N3Cc4ccccc4C3)CN2C1=O` [Compound 2604] the value was less than 5.00.
